pIC50: −log10 of the molar value. “And” between values parts separate entries of the source, which are not always exact repeats. Identical values can stand only once. The source made the active and inactive calls.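 How the source made its calls: active means IC50 of 25 µM or lower, counted as toxic to worms; inactive means the rest.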
Test system: C. elegans VP596 worm health composite score, 20-22 h
Assay: C. elegans worm health toxicity scoring, SAR follow-up, cytotoxicity control for SKN-1 inhibitor project, whole organism, strain VP596, composite health score, round 3 (AID 743062)

| Structure (SMILES) | IC50 | pIC50 |
| --- | --- | --- |
| COc1cccc(-c2csc(-c3ccncc3)n2)c1 | 55.7 µM (inactive) |  |
| c1ccc(-c2csc(-c3cccnc3)n2)cc1 | 53.9 µM (inactive) |  |
| Fc1ccc(-c2csc(-c3ccccc3)n2)cc1 | 28.4 µM (inactive) |  |
| N#Cc1ccc(-c2csc(-c3ccncc3)n2)cc1 | 37.2 µM (inactive) |  |
| Cc1ccc(-c2csc(-c3cccnc3)n2)cc1 | > 64 µM (inactive) |  |
| COc1ccc(-c2csc(-c3ccccn3)n2)cc1 |  | 4.67 |
| Clc1ccc(-c2csc(-c3ccncc3)n2)c(Cl)c1 | > 64 µM (inactive) |  |
| Clc1ccc(-c2csc(-c3ccccc3)n2)cc1 | > 64 µM (inactive) |  |
| Clc1ccc(-c2csc(-c3ccncc3)n2)cc1 | 32.7 µM (inactive) and 11.5 µM |  |
| Cc1ccc(-c2nc(-c3ccncc3)sc2C)cc1 | > 64 µM (inactive) |  |
| c1ccc(-c2csc(C3CCNCC3)n2)cc1 | > 64 µM (inactive) |  |
| Cc1csc(-c2ccncc2)n1 | > 64 µM (inactive) |  |
| Cc1ccccc1-c1csc(-c2ccncc2)n1 | 55.7 µM (inactive) |  |
| c1cc(-c2nc(-c3nccs3)cs2)ccn1 | > 64 µM (inactive) |  |
| Fc1ccc(-c2csc(-c3ccncc3)n2)cc1 | 53.6 µM (inactive) |  |
| Cc1ccc(-c2csc(-c3ccncc3)n2)cc1 | 54.6 µM (inactive) |  |
| c1ccc(-c2nc(-c3cccnc3)cs2)cc1 | > 64 µM (inactive) |  |
| Clc1cccc(-c2csc(-c3ccncc3)n2)c1 |  | 4.80 |
| COc1ccc(-c2nc(-c3ccncc3)sc2C)cc1 | > 64 µM (inactive) |  |
| Cc1sc(-c2ccncc2)nc1-c1ccc(F)cc1 | > 64 µM (inactive) |  |
| COc1ccc(-c2csc(-c3cccnc3)n2)cc1 | 36.4 µM (inactive) |  |
| Clc1ccc(-c2csc(-c3ccccn3)n2)cc1 | 23.1 µM and > 64 µM (inactive) |  |
| COc1ccc(-c2csc(-c3ccccc3)n2)cc1 | > 64 µM (inactive) |  |
| COC(=O)c1ccc(-c2csc(-c3ccncc3)n2)cc1 | > 64 µM (inactive) |  |

| Structure (SMILES) | IC50 | pIC50 |
| --- | --- | --- |
| CCCc1cc(-c2nc(-c3ccc(NS(C)(=O)=O)cc3)cs2)ccn1 | > 64 µM (inactive) |  |
| CC(C)(C)c1csc(-c2ccncc2)n1 | > 64 µM (inactive) |  |
| c1cc(-c2nc(C3CC3)cs2)ccn1 | > 64 µM (inactive) |  |
| Clc1ccc(-c2csc(-c3cccnc3)n2)cc1 | 11.1 µM and 29.4 µM (inactive) |  |
| COc1ccccc1-c1csc(-c2ccncc2)n1 | 48.4 µM (inactive) |  |
| c1ccc(-c2csc(-c3ccncc3)n2)cc1 | 42.4 µM (inactive) |  |
| Cc1sc(-c2ccncc2)nc1-c1ccc(Cl)cc1 | > 64 µM (inactive) |  |
| Cc1sc(-c2ccncc2)nc1-c1ccccc1 | 48.3 µM (inactive) |  |
| Clc1ccc(-c2csc(C3CCNCC3)n2)cc1 | > 64 µM (inactive) |  |
| Cc1sc(C2CCNCC2)nc1-c1ccccc1 | > 64 µM (inactive) |  |
| Fc1ccc(-c2csc(-c3cccnc3)n2)cc1 | 35.6 µM (inactive) |  |
| COc1ccc(-c2csc(C3CCNCC3)n2)cc1 | > 64 µM (inactive) |  |
| c1ccc(-c2csc(-c3ccccn3)n2)cc1 | > 64 µM (inactive) |  |
| Clc1ccc(-c2csc(-c3ccncc3)n2)cc1Cl | 10.5 µM and 33.7 µM (inactive) |  |
| Cc1cccc(-c2csc(-c3ccncc3)n2)c1 | 50.8 µM (inactive) |  |
| FC(F)(F)c1ccc(-c2csc(-c3ccncc3)n2)cc1 |  | 4.69 |
| Fc1ccc(-c2csc(C3CCNCC3)n2)cc1 | > 64 µM (inactive) |  |
| Fc1ccc(-c2csc(-c3ccccn3)n2)cc1 | 42 µM (inactive) |  |
| Cc1ccc(-c2csc(-c3ccccc3)n2)cc1 | > 64 µM (inactive) |  |
| CCCc1cc(-c2nc(-c3ccc(C)cc3)cs2)ccn1 | > 64 µM (inactive) |  |
| Clc1ccccc1-c1csc(-c2ccncc2)n1 | 33.2 µM (inactive) |  |
| COc1ccc(-c2csc(-c3ccncc3)n2)cc1 | > 64 µM (inactive) |  |
| Cc1ccc(-c2csc(C3CCNCC3)n2)cc1 | > 64 µM (inactive) |  |
| Cc1ccc(-c2csc(-c3ccccn3)n2)cc1 | > 64 µM (inactive) |  |

From PubChem BioAssay AID743062 (Sanford-Burnham Center for Chemical Genomics, 2013)
